Measurements reported in patent publication US11191855B2, “1,7-diaryl-1,6-heptadiene-3,5-dione derivatives, methods for the production and use thereof” (UNIVERSITÄTSKLINIKUM REGENSBURG, priority 2015, dated 2021).
Read-outs that look alike come from different tables or passages of the source.

Test system: E. coli ATCC 25922
Experiment: Phototoxicity test c.1) (LED array 430-435 nm, CFU count by Miles and Misra)
Type: cell-based, Escherichia coli
Conditions: Escherichia coli, ATCC25922, light or radiation study, light dose 33.8 J/cm^2, approx. 435 nm, 60 min at 9.4 mW/cm^2, vs reference control; for log reduction at 10 µM: read-out: Effectiveness against E. Coli: Reduction in CFU in log10 at concentration of 10 μM; for log reduction at 50 µM: read-out: Effectiveness against E. Coli: Reduction in CFU in log10 at concentration of 50 μM
Protocol: A sample of the bacterial cell Staphylococcus. aureus (ATCC number: 25923) or Escherichia. coli (ATCC number: 25922) was removed from a cryo-freeze culture and cultured under aerobic conditions at 37° C. and 175 rpm overnight in an orbital shaker (MAXQ4000, Thermo Scientific, Dubuque, Iowa, USA). Growth was carried out in 20 mL Todd-Hewitt broth (Carl Roth, Karlsruhe, Germany) supplemented with 0.3% of yeast extract (AppliChem, Darmstadt, Germany).
Subsequently, dilutions (0, 5, 10, […] and 20% v/v of the overnight culture) and their absorptions were measured at 600 nm in triplicate for 100 μL (Infinite 200 M Pro, Tecan, Mannedorf, Switzerland). A calibration graph (Microsoft Excel) was used to calculate the volume which was required to produce 20 mL of a culture with an absorption of 0.05 at 600 nm. The volume calculated for the overnight culture was topped up with Todd-Hewitt broth (composition as above) to 20 mL and incubated for two hours at 37° C. with constant movement (175 rpm, MAXQ4000). The cultures were then in the exponential growth phase; the absorption at 600 nm was between 0.3 and 0.45.
A 2-hour culture was divided into 1800 μL aliquots. After centrifuging at 20° C., 830 rcf, 5 min (5417R centrifuge, Eppendorf, Hamburg, Germany), the pellets were re-suspended in phosphate buffer (Dulbeccos' Modified Phosphate Saline, DPBS, Sigma-Aldrich) with either 10 or 50 μM of the corresponding photosensitizer, wherein the final volume was kept at 1800 μL.
The solutions obtained were immediately incubated on the orbital shaker (see above for parameters) for 5 or 25 minutes.
Three controls were run at the same time for each photosensitizer. The “light only” control contained DPBS without photosensitizer. The “photosensitizer only” (“PS only”) control was incubated like the PDI samples, but not irradiated and kept strictly in darkness. A further control (double negative, “Co−/−”), received neither light nor photosensitizer.
After the incubation, duplicates of the samples (500 μL each) were transferred into a 24-well microtitre plate (Cellstar, Greiner Bio-One, Frickenhausen, Germany). The “PS only” and “Co −/−” samples were placed in their own microtitre plate which was packed in aluminium foil so as to be lightproof.
The irradiation was carried out under constant shaking (MTS4, IKA, Staufen, Germany, 175 rpm) from below on a LED array with maximum homogeneity of the lighting surface. All of the controls were shaken in the same manner. The technical data for the light source are shown in Table 2; the total dose of light applied was 33.8 J/cm^2.
The determination of the colony forming units (CFU) was carried out in accordance with the method published by Miles and Misra (Miles, A A; Misra, S S, Irwin, J O (1938 Nov.). “The estimation of the bactericidal power of the blood” The Journal of hygiene 38 (6): 732-49). In this regard, serial dilutions (1:10) of the corresponding bacterial suspension were produced in DPBS. 5×10 μL of each bacterial dilution was then dripped onto Todd-Hewitt plates (with broth, additional 1.5% agar (Agar-Agar, Kobe I, Roth, Karlsruhe, Germany) and incubated at 37° C. for 24 h. Next, the number of surviving colony forming units was determined. All of the tests were carried out four times.
The photosensitizers were tested against the bacterial strain E. coli ATCC 25922. FIGS. 1-20 show the measured surviving colony forming units (CFU).
The average reference control (arithmetic mean with standard deviation) (no light, no PS) was 3.6×10^8/mL. The logarithmic reduction after illumination is shown with respect to the reference control. The respective upper value, indicated by a *, refers to an incubation period of 5 min and the respectively lower value, indicated by a #, refers to an incubation period of 25 min.

[1] = 5 min, incubation period 5 min (upper value, *)
[2] = 25 min, incubation period 25 min (lower value)

| Structure (SMILES) | log reduction at 10 µM [1] | log reduction at 50 µM [1] | log reduction at 10 µM [2] | log reduction at 50 µM [2] |
| --- | --- | --- | --- | --- |
| COc1cc(/C=C/C(=O)CC(=O)/C=C/c2ccc(OCCN)c(OC)c2)ccc1OCCN.Cl.Cl [Curcumin 01a hydrochloride] | > 1 | > 5 | > 2 | > 5 |
| Cl.Cl.Cl.Cl.NCCOc1ccc(/C=C/C(=O)CC(=O)/C=C/c2ccc(OCCN)c(OCCN)c2)cc1OCCN [Curcumin 03 hydrochloride] | > 7 | > 7 | > 7 | > 7 |
